One test concerns the target T1, Coagulation factor XII (Homo sapiens, UniProt P00748).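 Also: activated factor XIIa alpha cleaving a fluorogenic AMC peptide substrate; inhibitor potency from loss of enzyme activity.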
T1 sequence (P00748 whole entry): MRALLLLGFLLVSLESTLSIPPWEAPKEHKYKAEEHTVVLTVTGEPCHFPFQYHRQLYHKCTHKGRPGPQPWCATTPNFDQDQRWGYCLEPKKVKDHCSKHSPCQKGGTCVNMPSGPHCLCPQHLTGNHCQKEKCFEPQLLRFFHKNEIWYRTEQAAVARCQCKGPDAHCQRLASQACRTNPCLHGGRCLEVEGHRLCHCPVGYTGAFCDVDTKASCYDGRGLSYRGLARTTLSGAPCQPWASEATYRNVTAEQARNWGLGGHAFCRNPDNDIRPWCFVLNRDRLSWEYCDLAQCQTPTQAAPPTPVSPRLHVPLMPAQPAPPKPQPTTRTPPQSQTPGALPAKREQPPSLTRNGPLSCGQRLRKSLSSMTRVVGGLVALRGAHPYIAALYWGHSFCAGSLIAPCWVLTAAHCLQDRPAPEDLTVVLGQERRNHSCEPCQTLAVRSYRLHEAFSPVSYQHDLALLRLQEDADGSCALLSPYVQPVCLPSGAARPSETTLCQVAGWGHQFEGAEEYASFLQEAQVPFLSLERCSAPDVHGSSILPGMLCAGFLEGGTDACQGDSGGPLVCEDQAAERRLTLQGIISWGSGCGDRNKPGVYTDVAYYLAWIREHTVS
The class given is functional.

The nature of test [1]: cytotoxicity toward NIH3T3 fibroblasts, dose response, counter-screen, cell-based, ATP luminescence, mouse fibroblasts (AID 2010).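 Also: cells exposed to compound for about 90 hours before reading.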 It counts as functional. On the technique in general: Counterscreens check selectivity or assay interference.
Test [2] can be described thus: inhibitors of Vif binding to APOBEC3G peptide, primary screen, biochemical, TR-FRET, GST-Vif 1-94, biotin-A3G peptide, dose response retest (AID 1117319).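 Also: TR-FRET signal of purified GST-Vif binding a biotinylated A3G peptide; inhibitors lower the FRET signal by blocking Vif and A3G binding.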 The class given is functional. (In general: TR-FRET usually uses a lanthanide donor and a delayed reading to cut background.)
In another test the test system is INS1. The experiment in a line: beta cell apoptosis inhibitors, cytokine rescue, dose response, luminescence, retest (AID 449756).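 Also: cell death triggered by IL-1 beta plus TNF-alpha plus IFN-gamma mixture; protective hits raise ATP signal compared with cytokine alone wells.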 To be noted: Rattus norvegicus. The class given is functional, cell-based.
The nature of test [3]: inhibitors of intracellular T. cruzi replication, confirmation, NIH3T3 host cells, beta-gal luminescence (AID 2044).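 Also: intracellular parasites grown in NIH/3T3 mouse fibroblasts as host cells; luminescent beta-galactosidase reporter signal from transgenic T. cruzi replicating inside host cells; inhibitors lower the luminescence signal.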 The class given is functional, cell-based.
The nature of test [4]: Vero cell cytotoxicity, dose response, cytotoxicity control for Vif-APOBEC3G degradation inhibitor project, Vero cells (AID 1117358). The class given is functional. To be noted: Human immunodeficiency virus 1, Vero.
For test [5], the target named is T2, Sphingosine 1-phosphate receptor 2 (Homo sapiens, UniProt O95136). Nature of the test: Dose Response Cell Based Assay for Agonists of the S1P2 Receptor. [Related pubchem assays: 729, 736, 843 ]. It counts as functional.
T2 sequence (O95136 whole entry): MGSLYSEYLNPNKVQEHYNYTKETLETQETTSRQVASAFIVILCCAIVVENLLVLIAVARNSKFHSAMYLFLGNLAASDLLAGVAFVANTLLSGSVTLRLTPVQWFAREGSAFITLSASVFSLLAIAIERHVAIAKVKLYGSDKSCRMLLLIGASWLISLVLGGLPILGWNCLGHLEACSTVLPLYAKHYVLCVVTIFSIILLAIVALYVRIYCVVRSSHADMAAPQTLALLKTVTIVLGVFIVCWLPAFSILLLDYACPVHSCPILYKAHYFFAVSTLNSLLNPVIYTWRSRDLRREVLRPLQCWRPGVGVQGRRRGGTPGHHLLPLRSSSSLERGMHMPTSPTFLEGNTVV
Test [6] in a line: MC4R antagonists, dose response, counter-screen for LGR2 antagonist project, cell-based, plate reader, cherry pick (AID 743444).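 Also: transfected HEK 293 cells stimulated with alpha-MSH peptide; potency of inhibitors of the alpha-MSH evoked signal.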 It counts as functional.
Test [7] in a line: LGR2 antagonists, dose response, cell-based, HEK293, CRE-luciferase reporter, cherry pick, set 2 (AID 743343).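 Also: transfected cells were stimulated with diluted bursicon conditioned medium after compound addition.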 It counts as functional. Background: Reporter assays use an easily measured gene product as a stand-in for the process of interest.
Test [8] in a line: Late stage counterscreen results from the probe development effort to identify activators of signal transducer and activator of transcription 1 (STAT1): luminescence-based cell-based dose response assay to identify cytotoxic compounds. It counts as functional.
In test [9] the target is E3 ubiquitin-protein ligase Mdm2 (Homo sapiens, UniProt Q00987). The experiment in a line: enhancers of MDM2-luciferase reporter signal, concentration-effect titration, project on inhibitors of MDM2 ubiquitin ligase, cellular assay, luminescent readout, 384-well plate format (AID 1394).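 Also: MDM2 E3 inhibitors raise luminescence so EC50 is for signal enhancement.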 It counts as functional.
E3 ubiquitin-protein ligase Mdm2, sequence (Q00987 whole entry): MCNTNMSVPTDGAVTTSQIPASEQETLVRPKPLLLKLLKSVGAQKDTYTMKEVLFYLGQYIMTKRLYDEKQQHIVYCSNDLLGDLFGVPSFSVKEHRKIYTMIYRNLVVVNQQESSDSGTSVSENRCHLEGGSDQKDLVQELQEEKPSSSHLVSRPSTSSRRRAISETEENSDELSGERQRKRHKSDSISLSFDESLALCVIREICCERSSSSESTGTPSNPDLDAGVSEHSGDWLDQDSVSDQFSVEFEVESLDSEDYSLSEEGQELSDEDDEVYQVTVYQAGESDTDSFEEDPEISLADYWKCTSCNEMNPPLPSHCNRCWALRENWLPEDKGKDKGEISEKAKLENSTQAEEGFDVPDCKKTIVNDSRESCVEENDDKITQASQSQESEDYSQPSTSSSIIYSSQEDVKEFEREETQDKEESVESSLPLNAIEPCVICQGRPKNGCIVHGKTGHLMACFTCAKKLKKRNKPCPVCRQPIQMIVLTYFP
Test [10] has as its target T2, Sphingosine 1-phosphate receptor 2. Nature of the test: Dose Response Cell Based Assay for Antagonists of the S1P2 Receptor. [Related pubchem assays: 856, 736 ]. It counts as functional.
The target in a further test is T3, Aminopeptidase N (Plasmodium falciparum FcB1/Columbia, UniProt O96935).
T3 sequence (O96935 whole entry): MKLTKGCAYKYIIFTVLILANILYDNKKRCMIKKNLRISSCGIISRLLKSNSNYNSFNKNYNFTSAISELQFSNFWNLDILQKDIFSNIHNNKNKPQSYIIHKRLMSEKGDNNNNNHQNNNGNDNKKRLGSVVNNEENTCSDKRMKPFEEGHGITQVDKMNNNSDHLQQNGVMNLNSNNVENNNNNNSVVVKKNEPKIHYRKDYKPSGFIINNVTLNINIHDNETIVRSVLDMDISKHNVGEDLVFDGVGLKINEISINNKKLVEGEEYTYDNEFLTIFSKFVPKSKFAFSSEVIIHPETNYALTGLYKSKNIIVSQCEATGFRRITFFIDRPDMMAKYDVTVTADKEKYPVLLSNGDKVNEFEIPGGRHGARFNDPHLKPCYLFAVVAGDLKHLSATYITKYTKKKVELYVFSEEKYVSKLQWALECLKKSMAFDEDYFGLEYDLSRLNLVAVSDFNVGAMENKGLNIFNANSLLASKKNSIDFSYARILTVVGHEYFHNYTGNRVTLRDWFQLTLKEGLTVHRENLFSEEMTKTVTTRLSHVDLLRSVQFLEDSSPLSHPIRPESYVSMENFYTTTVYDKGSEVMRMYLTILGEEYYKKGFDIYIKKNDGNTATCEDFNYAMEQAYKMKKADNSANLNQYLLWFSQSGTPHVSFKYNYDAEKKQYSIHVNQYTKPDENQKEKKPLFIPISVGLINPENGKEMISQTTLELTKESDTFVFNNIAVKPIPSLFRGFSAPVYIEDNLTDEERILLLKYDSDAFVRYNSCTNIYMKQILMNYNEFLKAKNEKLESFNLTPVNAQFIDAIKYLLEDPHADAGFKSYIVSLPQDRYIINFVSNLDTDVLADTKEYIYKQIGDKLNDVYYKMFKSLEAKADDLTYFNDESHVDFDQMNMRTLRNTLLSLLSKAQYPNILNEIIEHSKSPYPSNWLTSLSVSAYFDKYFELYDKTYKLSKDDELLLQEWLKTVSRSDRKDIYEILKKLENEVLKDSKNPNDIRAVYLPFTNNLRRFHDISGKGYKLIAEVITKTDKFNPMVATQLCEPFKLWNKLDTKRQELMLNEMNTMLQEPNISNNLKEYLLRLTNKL
The experiment in a line: P. falciparum M1AAP inhibitors, biochemical, fluorogenic H-Leu-NHMec substrate, 1536-well (AID 1445). The arrangement: species or system Plasmodium falciparum 3D7, 3D7.

Test [11] has as its target Bifunctional protein GlmU (Mycobacterium tuberculosis, UniProt P9WMN3). Nature of the test: Inhibitors of Mycobacterial Glucosamine-1-phosphate acetyl transferase (GlmU). Secondary screen. The arrangement: species or system Mycobacterium tuberculosis H37Rv.
For another test, the target named is Cytochrome P450 2C9 (Homo sapiens, UniProt P11712). Conditions: Potency.
Cytochrome P450 2C9, sequence (P11712 whole entry): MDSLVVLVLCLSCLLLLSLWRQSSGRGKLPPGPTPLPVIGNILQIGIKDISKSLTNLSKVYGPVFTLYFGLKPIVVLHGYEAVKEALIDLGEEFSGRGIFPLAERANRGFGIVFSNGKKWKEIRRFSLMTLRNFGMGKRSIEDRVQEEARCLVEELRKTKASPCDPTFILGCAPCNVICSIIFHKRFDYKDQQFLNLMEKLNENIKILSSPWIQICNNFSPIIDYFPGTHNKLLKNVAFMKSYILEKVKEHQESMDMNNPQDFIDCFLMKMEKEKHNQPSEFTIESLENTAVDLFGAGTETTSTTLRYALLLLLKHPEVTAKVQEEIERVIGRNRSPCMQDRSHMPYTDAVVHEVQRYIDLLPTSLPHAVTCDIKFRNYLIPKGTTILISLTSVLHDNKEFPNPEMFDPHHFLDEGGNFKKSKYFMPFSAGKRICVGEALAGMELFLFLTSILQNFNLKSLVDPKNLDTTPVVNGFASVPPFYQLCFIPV
Another test addresses Cytochrome P450 2C19 (Homo sapiens, UniProt P33261). The experiment in a line: qHTS Assay for Inhibitors and Substrates of Cytochrome P450 2C19. [Related pubchem assays: 410 ]. It counts as ADME. Conditions: read-out: Potency.
Test [12] addresses Glutathione-S-transferase (Schistosoma japonicum, UniProt Q26513). Nature of the test: biotin-GST/anti-GST TR-FRET signal inhibitors, dose response, artefact control for Vif-APOBEC3G degradation inhibitor project, biochemical (AID 1117362). It counts as functional.

Structures are written as SMILES. Active and inactive are the calls of the source.

Bifunctional protein GlmU, sequence (P9WMN3 whole entry): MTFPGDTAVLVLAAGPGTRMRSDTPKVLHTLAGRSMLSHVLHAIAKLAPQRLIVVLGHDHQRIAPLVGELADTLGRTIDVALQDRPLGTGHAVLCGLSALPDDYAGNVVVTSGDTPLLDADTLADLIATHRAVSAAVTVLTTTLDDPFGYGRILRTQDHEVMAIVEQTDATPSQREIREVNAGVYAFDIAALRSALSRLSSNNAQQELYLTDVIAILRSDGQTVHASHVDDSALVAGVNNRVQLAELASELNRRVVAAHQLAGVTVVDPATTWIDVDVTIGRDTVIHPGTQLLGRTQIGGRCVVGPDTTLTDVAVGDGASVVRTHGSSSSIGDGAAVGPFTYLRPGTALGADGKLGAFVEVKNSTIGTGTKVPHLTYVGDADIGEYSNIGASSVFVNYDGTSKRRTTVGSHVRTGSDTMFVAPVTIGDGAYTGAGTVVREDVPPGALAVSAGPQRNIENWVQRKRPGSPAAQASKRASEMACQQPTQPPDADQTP
Cytochrome P450 2C19, sequence (P33261 whole entry): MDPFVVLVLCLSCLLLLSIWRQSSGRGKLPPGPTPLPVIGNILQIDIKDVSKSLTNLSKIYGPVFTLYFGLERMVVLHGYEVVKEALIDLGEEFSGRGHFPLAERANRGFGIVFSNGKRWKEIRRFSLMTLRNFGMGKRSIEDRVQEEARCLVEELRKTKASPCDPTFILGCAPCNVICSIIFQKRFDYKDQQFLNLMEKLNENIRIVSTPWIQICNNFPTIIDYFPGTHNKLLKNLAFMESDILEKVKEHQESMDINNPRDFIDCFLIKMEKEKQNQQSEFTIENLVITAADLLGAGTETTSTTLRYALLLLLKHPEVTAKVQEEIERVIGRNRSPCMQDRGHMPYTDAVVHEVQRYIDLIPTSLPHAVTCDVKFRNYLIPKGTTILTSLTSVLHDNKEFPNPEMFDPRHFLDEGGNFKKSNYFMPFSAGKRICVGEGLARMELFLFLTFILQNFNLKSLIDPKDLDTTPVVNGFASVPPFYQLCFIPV
Glutathione-S-transferase, sequence (Q26513 whole entry): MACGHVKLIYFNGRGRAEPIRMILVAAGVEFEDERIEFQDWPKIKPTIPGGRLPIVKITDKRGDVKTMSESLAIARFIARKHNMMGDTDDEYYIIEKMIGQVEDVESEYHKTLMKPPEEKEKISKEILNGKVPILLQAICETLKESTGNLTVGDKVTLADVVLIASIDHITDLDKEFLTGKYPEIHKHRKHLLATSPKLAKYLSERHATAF

Regarding `Cc1ccccc1N1CCN(Cc2c[nH]c3ccccc23)CC1`, the IC50 (usually the concentration that inhibits the measured activity by half) is > 50 µM (inactive) on Coagulation factor XII and > 100 µM (active) in test [2]. Also, the values for the EC50 in test [1] and in test [3] were > 60 µM (not active) and 0.623 µM (active), respectively. For the same compound, the AC50 in the test on INS1 is 7.61 µM (active). Further, in test [4], the CC50 – broadly, the concentration at which the toxic effect on the cells reaches its halfway point – is > 40 µM (active).

On to `Oc1cccc(C(=S)N2CCN(Cc3ccccc3)CC2)c1`, for which, in test [5], the EC50 (in general, the concentration giving half of the maximal effect) is recorded as > 50 µM (not active).

`COc1ccc(-c2cc(C)nc3c(-c4ccccc4)cnn23)cc1`: the results for the AC50 in test [6] and in [7] were 20.1 µM (active) and 15.9 µM (active), respectively. For the same compound, the IC50 in test [8] is > 55.7 µM (not active).

As for `CC(C)Oc1ccc(C(=O)NC(=S)N2CCOCC2)cc1`, in [9], the EC50 is 25 µM (not active).

With `CCOC(=O)C1C(=O)CC(C)(O)C(C(=O)OCC)C1c1ccccc1` (stereo not drawn), the IC50 in [10] is given as > 50 µM (not active).

In the case of `O=C(CCCN1C(=O)/C(=C/c2ccco2)SC1=S)Nc1ccccc1C(=O)O`, the figures for the IC50 (at Aminopeptidase N; in [11]) were 102 µM (active) and 86 µM (active), respectively.

On to `CC(C)C[C@@H](CC(=O)N[C@@H](CCCN)CC(=O)N[C@@H]1CCCC[C@H]1C(=O)N[C@H](CC(=O)N[C@@H](CCC(=O)O)CC(=O)O)Cc1ccccc1)NC(=O)[C@@H]1CCCC[C@H]1N`, for which the AC50 was 3.98 µM (inconclusive) at Cytochrome P450 2C9 and 39.8 µM (inconclusive) at Cytochrome P450 2C19.

Consider `CCN1CCN(c2ccc(NC(=O)Cc3ccccc3)cc2)CC1`, for which the IC50 in test [2] and in test [12] was > 100 µM (active) throughout.

Values taken from ChEMBL document CHEMBL1201862, “PubChem BioAssay data set” (2004).
